Patent US20250269072A1, “PROCESSES FOR PREPARING RADIOLABELLED CONJUGATES” (CENTENARY INSTITUTE OF CANCER MEDICINE AND CELL BIOLOGY, priority 2021, published 2025)
Where “and” joins values, the source holds several entries; their conditions need not be identical. Equal values may be shown once.

Legend:
[1] = Human radiation dosimetry estimated from rat biodistribution (OLINDA/EXM); assay type: in vivo, human (standard adult male); details: from rat data
Description: For the voiding bladder model it was assumed that patients would void 1 hour following administration.

[2] = In-human study of ^68Ga-CDI: radiation dosimetry (OLINDA/EXM 1.1); assay type: in vivo; details: 5 participants
Description: Activity concentrations derived above were entered into OLINDA/EXM 1.1 and bi-exponential curves fitted using the curve fitting tools within OLINDA/EXM 1.1 (Stabin et al., J Nucl Med. 2005; 46:1023-1027).

[3] = test system: squamous cell carcinoma lymph node metastases; experiment: Histological correlation (TUNEL) with ^68Ga-CDI uptake; assay type: in vivo, human; details: subject 3, right axillary and right cervical nodal metastases
Description: In one subject, who proceeded to surgical excision of the tumor deposits 1 day after the ^68Ga-CDI PET scan, histological correlation of the tumor deposits were undertaken using haematoxylin and eosin staining and TUNEL staining to specifically identify dead and dying cells. Representative samples of the formalin fixed surgical specimens (following completion of all clinical analysis and excess to that required for archival purposes) from the right axillary and right cervical nodal masses were selected and provided by the reporting clinical pathologist. The tissues were fixed, rehydrated with ethanol and xylene and embedded in paraffin. A series of 4 μm thick sections were cut and stained with Haematoxylin and Eosin. Apoptotic cells were stained using the TUNEL assay kit HRP-DAB (Abcam, Cat #206386, Cambridge, MA, USA) according to manufacturer's protocol. Briefly, 4 μm sections of paraffin embedded tumor were deparaffinized in xylene and rehydrated in decreasing concentrations of ethanol. Tumor sections were permeabilized with Proteinase K for 20 min at room temperature. The endogenous peroxidase activity was quenched with 3% H2O2 for 5 min. Apoptotic cells were labelled with biotinylated Terminal deoxynucleotidyl Transferase (TdT) at 37° C. in humidified chamber for 2 h followed by a 30 min incubation with streptavidin-HRP conjugate. […]

O=C(O)CNC(=O)[C@H](CSCC(=O)Nc1ccc([As](O)O)cc1)NC(=O)CC[C@H](NC(=O)CCC1C(=O)[O][68Ga]2[O]C(=O)CN3CCN(CCN1CC3)CC(=O)[O]2)C(=O)O (stereo partly drawn) [^68Ga-NODAGA-GSAO]
Alpha dose ([1]; Adrenals): 0.00E000 mSv/MBq | Beta dose ([1]; Adrenals): 2.13E−03 mSv/MBq | ED Cont. ([1]; Adrenals): 2.01E−05 mSv/MBq | Total dose ([1]; Adrenals): 4.02E−03 mSv/MBq | Alpha dose ([1]; Brain): 0.00E000 mSv/MBq | Beta dose ([1]; Brain): 8.15E−04 mSv/MBq | ED Cont. ([1]; Brain): 6.94E−06 mSv/MBq | Total dose ([1]; Brain): 1.39E−03 mSv/MBq | Alpha dose ([1]; Breasts): 0.00E000 mSv/MBq | Beta dose ([1]; Breasts): 2.13E−03 mSv/MBq | ED Cont. ([1]; Breasts): 1.51E−04 mSv/MBq | Total dose ([1]; Breasts): 3.02E−03 mSv/MBq | Alpha dose ([1]; Gallbladder Wall): 0.00E000 mSv/MBq | Beta dose ([1]; Gallbladder Wall): 2.13E−03 mSv/MBq | ED Cont. ([1]; Gallbladder Wall): 0.00E000 mSv/MBq | Total dose ([1]; Gallbladder Wall): 4.28E−03 mSv/MBq | Alpha dose ([1]; Heart Wall): 0.00E000 mSv/MBq | Beta dose ([1]; Heart Wall): 3.09E−03 mSv/MBq | ED Cont. ([1]; Heart Wall): 0.00E000 mSv/MBq | Photon dose ([1]; Heart Wall): 1.55E−03 mSv/MBq | Total dose ([1]; Heart Wall): 4.65E−03 mSv/MBq | Alpha dose ([1]; Kidneys): 0.00E000 mSv/MBq | Beta dose ([1]; Kidneys): 2.27E−02 mSv/MBq | ED Cont. ([1]; Kidneys): 1.31E−04 mSv/MBq | Photon dose ([1]; Kidneys): 3.56E−03 mSv/MBq | Total dose ([1]; Kidneys): 2.62E−02 mSv/MBq | Alpha dose ([1]; LLI Wall): 0.00E000 mSv/MBq | Beta dose ([1]; LLI Wall): 2.13E−03 mSv/MBq | ED Cont. ([1]; LLI Wall): 8.67E−04 mSv/MBq | Total dose ([1]; LLI Wall): 7.23E−03 mSv/MBq | Alpha dose ([1]; Liver): 0.00E000 mSv/MBq | Beta dose ([1]; Liver): 4.76E−03 mSv/MBq | ED Cont. ([1]; Liver): 3.40E−04 mSv/MBq | Photon dose ([1]; Liver): 2.04E−03 mSv/MBq | Total dose ([1]; Liver): 6.80E−03 mSv/MBq | Alpha dose ([1]; Lungs): 0.00E000 mSv/MBq | Beta dose ([1]; Lungs): 5.42E−03 mSv/MBq | ED Cont. ([1]; Lungs): 8.16E−04 mSv/MBq | Total dose ([1]; Lungs): 6.80E−03 mSv/MBq | Alpha dose ([1]; Muscle): 0.00E000 mSv/MBq | ED Cont. ([1]; Muscle): 2.09E−05 mSv/MBq | Total dose ([1]; Muscle): 4.18E−03 mSv/MBq | Alpha dose ([1]; Osteogenic Cells): 0.00E000 mSv/MBq | Beta dose ([1]; Osteogenic Cells): 3.31E−03 mSv/MBq | ED Cont. ([1]; Osteogenic Cells): 4.98E−05 mSv/MBq | Total dose ([1]; Osteogenic Cells): 4.98E−03 mSv/MBq | Alpha dose ([1]; Ovaries): 0.00E000 mSv/MBq | Beta dose ([1]; Ovaries): 2.13E−03 mSv/MBq | ED Cont. ([1]; Ovaries): 1.40E−03 mSv/MBq | Total dose ([1]; Ovaries): 7.02E−03 mSv/MBq | Alpha dose ([1]; Pancreas): 0.00E000 mSv/MBq | Beta dose ([1]; Pancreas): 3.87E−03 mSv/MBq | ED Cont. ([1]; Pancreas): 2.95E−05 mSv/MBq | Total dose ([1]; Pancreas): 5.90E−03 mSv/MBq | Alpha dose ([1]; Red Marrow): 0.00E000 mSv/MBq | Beta dose ([1]; Red Marrow): 1.49E−03 mSv/MBq | ED Cont. ([1]; Red Marrow): 4.05E−04 mSv/MBq | Total dose ([1]; Red Marrow): 3.38E−03 mSv/MBq | Alpha dose ([1]; Skin): 0.00E000 mSv/MBq | Beta dose ([1]; Skin): 2.13E−03 mSv/MBq | ED Cont. ([1]; Skin): 3.19E−05 mSv/MBq | Total dose ([1]; Skin): 3.19E−03 mSv/MBq | Alpha dose ([1]; Small Intestine): 0.00E000 mSv/MBq | Beta dose ([1]; Small Intestine): 5.18E−03 mSv/MBq | ED Cont. ([1]; Small Intestine): 4.10E−05 mSv/MBq | Photon dose ([1]; Small Intestine): 3.03E−03 mSv/MBq | Total dose ([1]; Small Intestine): 8.21E−03 mSv/MBq | Alpha dose ([1]; Spleen): 0.00E000 mSv/MBq | Beta dose ([1]; Spleen): 4.05E−03 mSv/MBq | ED Cont. ([1]; Spleen): 2.95E−05 mSv/MBq | Total dose ([1]; Spleen): 5.91E−03 mSv/MBq | Alpha dose ([1]; Stomach Wall): 0.00E000 mSv/MBq | Beta dose ([1]; Stomach Wall): 2.61E−03 mSv/MBq | ED Cont. ([1]; Stomach Wall): 5.06E−04 mSv/MBq | Photon dose ([1]; Stomach Wall): 1.61E−03 mSv/MBq | Total dose ([1]; Stomach Wall): 4.22E−03 mSv/MBq | Alpha dose ([1]; Testes): 0.00E000 mSv/MBq | Beta dose ([1]; Testes): 2.21E−03 mSv/MBq | ED Cont. ([1]; Testes): 0.00E000 mSv/MBq | Total dose ([1]; Testes): 5.69E−03 mSv/MBq | Alpha dose ([1]; Thymus): 0.00E000 mSv/MBq | Beta dose ([1]; Thymus): 4.48E−03 mSv/MBq | ED Cont. ([1]; Thymus): 2.92E−05 mSv/MBq | Total dose ([1]; Thymus): 5.84E−03 mSv/MBq | Alpha dose ([1]; Thyroid): 0.00E000 mSv/MBq | Beta dose ([1]; Thyroid): 2.13E−03 mSv/MBq | ED Cont. ([1]; Thyroid): 1.64E−04 mSv/MBq | Total dose ([1]; Thyroid): 3.28E−03 mSv/MBq | Alpha dose ([1]; Total Body): 0.00E000 mSv/MBq | Beta dose ([1]; Total Body): 2.68E−03 mSv/MBq | ED Cont. ([1]; Total Body): 0.00E000 mSv/MBq | Total dose ([1]; Total Body): 4.61E−03 mSv/MBq | Alpha dose ([1]; ULI Wall): 0.00E000 mSv/MBq | Beta dose ([1]; ULI Wall): 2.53E−03 mSv/MBq | ED Cont. ([1]; ULI Wall): 2.58E−05 mSv/MBq | Photon dose ([1]; ULI Wall): 2.63E−03 mSv/MBq | Total dose ([1]; ULI Wall): 5.18E−03 mSv/MBq | Alpha dose ([1]; Urinary Bladder Wall): 0.00E000 mSv/MBq | Beta dose ([1]; Urinary Bladder Wall): 2.84E−01 mSv/MBq | ED Cont. ([1]; Urinary Bladder Wall): 1.62E−02 mSv/MBq | Total dose ([1]; Urinary Bladder Wall): 3.24E−01 mSv/MBq | Alpha dose ([1]; Uterus): 0.00E000 mSv/MBq | Beta dose ([1]; Uterus): 2.13E−03 mSv/MBq | ED Cont. ([1]; Uterus): 5.77E−05 mSv/MBq | Total dose ([1]; Uterus): 1.15E−02 mSv/MBq | dose to urinary bladder wall (dose limiting organ) [1]: 0.32 mSv/MBq | whole body effective dose [1]: 2.13E-02 mSv/MBq and 0.021 mSv/MBq | whole body effective dose ([1]; injected activity 150 MBq): 3.2 mSv | Estimated radiation dose, Average ([2]; Adrenals): 1.28E−02 mSv/MBq | Estimated radiation dose, Average ([2]; Brain): 1.75E−03 mSv/MBq | Estimated radiation dose, Average ([2]; Breasts): 7.03E−03 mSv/MBq | Estimated radiation dose, Average ([2]; Effective dose, listed as 68Ga-CDI): 2.17E-02±4.61E-03 mSv/MBq and 2.17E−02 mSv/MBq | Estimated radiation dose, Average ([2]; Gallbladder Wall): 8.16E−03 mSv/MBq | Estimated radiation dose, Average ([2]; Heart Wall): 1.02E−02 mSv/MBq | Estimated radiation dose, Average ([2]; Kidneys, listed as 68Ga-CDI): 4.89E-02±3.55E-03 mSv/MBq and 4.89E−02 mSv/MBq | Estimated radiation dose, Average ([2]; LLI Wall): 1.91E−02 mSv/MBq | Estimated radiation dose, Average ([2]; Liver): 1.61E−02 mSv/MBq | Estimated radiation dose, Average ([2]; Lungs): 7.75E−03 mSv/MBq | Estimated radiation dose, Average ([2]; Muscle): 8.96E−03 mSv/MBq | Estimated radiation dose, Average ([2]; Osteogenic Cells): 1.13E−02 mSv/MBq | Estimated radiation dose, Average ([2]; Ovaries): 1.20E−02 mSv/MBq | Estimated radiation dose, Average ([2]; Pancreas): 1.52E−02 mSv/MBq | Estimated radiation dose, Average ([2]; Red Marrow): 8.89E−03 mSv/MBq | Estimated radiation dose, Average ([2]; Skin): 5.39E−03 mSv/MBq | Estimated radiation dose, Average ([2]; Small Intestine): 1.45E−02 mSv/MBq | Estimated radiation dose, Average ([2]; Spleen): 1.59E−02 mSv/MBq | Estimated radiation dose, Average ([2]; Stomach Wall): 1.00E−02 mSv/MBq | Estimated radiation dose, Average ([2]; Testes): 1.67E−02 mSv/MBq | Estimated radiation dose, Average ([2]; Thymus): 6.32E−03 mSv/MBq | Estimated radiation dose, Average ([2]; Thyroid): 1.26E−02 mSv/MBq | Estimated radiation dose, Average ([2]; Total Body): 9.66E−03 mSv/MBq | Estimated radiation dose, Average ([2]; ULI Wall): 1.23E−02 mSv/MBq | Estimated radiation dose, Average ([2]; Urinary Bladder Wall, listed as 68Ga-CDI): 2.79E-01±1.11E-01 mSv/MBq and 2.79E−01 mSv/MBq | Estimated radiation dose, Average ([2]; Uterus): 2.63E−02 mSv/MBq | TUNEL positive cells versus intensity of uptake [3]: correlated
